Measurements from patent US20230033360A1, “COMPOUNDS AS CD73 INHIBITORS” (BioArdis LLC, priority 2019, published 2023).

molecular target: T1, Recombinant Human 5′-Nucleotidase (CD73) (Homo sapiens, UniProt P21589); experiment: CD73 Enzyme Assay (PiColorLock inorganic phosphate detection, AMP substrate); assay type: biochemical; conditions: human CD73 0.5 nM, AMP 30 μM, 20 min at 37° C., absorbance 635 nm; read-out: Potency (IC50)
T1 construct: CHO derived CD73 (Trp27-Lys547), with a C-terminal 6-His tag; 6-His (C); purchased R&D 5795-EN; host or cells: CHO
T1 sequence (P21589 27-547): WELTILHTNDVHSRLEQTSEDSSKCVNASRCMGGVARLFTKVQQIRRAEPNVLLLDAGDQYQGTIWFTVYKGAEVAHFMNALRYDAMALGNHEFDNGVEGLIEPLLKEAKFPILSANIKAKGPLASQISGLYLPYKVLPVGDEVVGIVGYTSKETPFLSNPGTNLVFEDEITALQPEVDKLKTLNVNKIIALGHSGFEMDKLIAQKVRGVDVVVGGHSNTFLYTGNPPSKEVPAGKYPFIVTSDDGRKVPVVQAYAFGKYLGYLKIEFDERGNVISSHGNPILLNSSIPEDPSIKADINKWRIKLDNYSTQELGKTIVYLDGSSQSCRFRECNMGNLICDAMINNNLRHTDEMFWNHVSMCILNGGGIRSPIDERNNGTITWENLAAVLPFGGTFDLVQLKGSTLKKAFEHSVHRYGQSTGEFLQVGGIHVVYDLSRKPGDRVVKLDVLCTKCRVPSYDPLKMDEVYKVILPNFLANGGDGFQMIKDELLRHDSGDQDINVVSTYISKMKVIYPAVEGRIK
Excerpt: Soluble recombinant CD73 catalyzes the conversion of adenosine monophosphate (AMP) to adenosine and inorganic phosphate. The phosphate detection reagent, PiColorLock™ (Innova Bioscience, Cat #303-0125) is based on the change in absorbance of the dye malachite green in the presence of inorganic phosphate (Pi) and this property can be exploited to measure any enzyme that generates Pi. Recombinant Human 5′-Nucleotidase (CD73) (R&D #5795-EN, CHO derived CD73 (Trp27-Lys547), with a C-terminal 6-His tag) was used in the enzymatic assay. This assay, run in a 384-well plate format (Corning® NBS™ 384 well plates, Cat #3640), is a generic method for measuring inorganic phosphate. The basic assay procedure involves two steps: 1) Enzyme reaction: The CD73 enzyme (R&D #5795-EN) is incubated in the presence or absence of compounds. AMP (sigma, cat #01930) is added to start the […] reaction. 2) Detection step: Gold mix is added to the assay system, then stabilizers are added. After incubation the absorbance of the solution is read at OD 635 nm. The recorded OD signal is proportional to the enzyme activity.
Briefly, 25 μl human CD73 (0.5 nM final concentration) in the enzymatic buffer solutions (20 mM Tris, 25 mM NaCl, 1 mM MgCl2, pH 7.5, 0.005% Tween-20) were mixed with various concentrations of the test compound (dissolved in 100% DMSO). These solutions were incubated for 15 min at 25° C., and subsequently 25 μl AMP (30 μM final concentration) was added to start the reaction. The final reaction mixture of enzyme-substrate-compound was incubated for 20 min at 37° C. Meanwhile ‘Gold mix’ was prepared shortly before use by adding 1/100 vol. of accelerator to the PiColorLock™ Gold reagent. 12 μL/well of the ‘Gold mix’ was added to assay plate containing 50 μL enzyme reaction buffer and incubated at 25° C. for 5 min. 5 μL/well stabilizer was added to the assay plate and incubated at 25° C. for 30 min. The absorbance of the well solutions was measured at 635 nm on a Spark 10M instrument (TECAN).
The percent (%) inhibition at each concentration of a compound was calculated relative to the […] value in the Max and Min control wells contained within each assay plate. The Max control wells contained enzyme and substrate as 0% inhibition, and the Min control wells only contained substrate without enzyme as 100% inhibition. The concentrations and percent inhibition values for a test compound are plotted and the concentration of the compound required to achieve 50% inhibition (IC50) was determined with a four-parameter logistic dose response equation.

Structure (SMILES)	IC50
C[C@H](Nc1cc(Cl)nn2c(C3O[C@H](COP(=O)(O)CP(=O)(O)O)[C@@H](O)[C@@H]3F)cnc12)c1ccccc1F (stereo partly drawn) [Example S19, (((((2R,3R,4S)-5-(6-chloro-8-(((S)-1-(2-fluorophenyl)ethyl)amino)imidazo[1,2-b]pyridazin-3-yl)-4-fluoro-3-hydroxytetrahydrofuran-2-yl)methoxy)(hydroxy)phosphoryl)methyl)phosphonic acid]	10 to 99 nM
O=P(O)(O)CP(=O)(O)OC[C@H]1OC(c2cnc3c(N4CCCC4)cc(Cl)nn23)[C@H](O)[C@@H]1O (stereo partly drawn) [Example S20, (((((2R,3S,4R)-5-(6-chloro-8-(pyrrolidin-1-yl)imidazo[1,2-b]pyridazin-3-yl)-3,4-dihydroxytetrahydrofuran-2-yl)methoxy)(hydroxy)phosphoryl)methyl)phosphonic acid]	1 to 9.9 nM
O=P(O)(O)CP(=O)(O)OC[C@H]1OC(c2cnc3c(N4CCCC4)cc(Cl)nn23)[C@@H](F)[C@@H]1O (stereo partly drawn) [Example S21, (((((2R,3R,4S)-5-(6-chloro-8-(pyrrolidin-1-yl)imidazo[1,2-b]pyridazin-3-yl)-4-fluoro-3-hydroxytetrahydrofuran-2-yl)methoxy)(hydroxy)phosphoryl)methyl)phosphonic acid]	10 to 99 nM
O=P(O)(O)CP(=O)(O)OC[C@H]1OC(c2cnc3c(N4CCC(F)(F)C4)cc(Cl)nn23)[C@@H](F)[C@@H]1O (stereo partly drawn) [Example S22, (((((2R,3R,4S)-5-(6-chloro-8-(3,3-difluoropyrrolidin-1-yl)imidazo[1,2-b]pyridazin-3-yl)-4-fluoro-3-hydroxytetrahydrofuran-2-yl)methoxy)(hydroxy)phosphoryl)methyl)phosphonic acid]	10 to 99 nM
O=P(O)(O)CP(=O)(O)OC[C@H]1OC(c2cnc3c(N4CC5CC5C4)cc(Cl)nn23)[C@H](O)[C@@H]1O (stereo partly drawn) [Example S23, (((((2R,3S,4R)-5-(8-(3-azabicyclo[3.1.0]hexan-3-yl)-6-chloroimidazo[1,2-b]pyridazin-3-yl)-3,4-dihydroxytetrahydrofuran-2-yl)methoxy)(hydroxy)phosphoryl)methyl)phosphonic acid]	< 1 nM
O=P(O)(O)CP(=O)(O)OC[C@H]1OC(c2cnc3c(N4CC5CCCC5C4)cc(Cl)nn23)[C@@H](F)[C@@H]1O (stereo partly drawn) [Example S24, (((((2R,3R,4S)-5-(6-chloro-8-(hexahydrocyclopenta[c]pyrrol-2 (1H)-yl)imidazo[1,2-b]pyridazin-3-yl)-4-fluoro-3-hydroxytetrahydrofuran-2-yl)methoxy)(hydroxy)phosphoryl)methyl)phosphonic acid]	1 to 9.9 nM
O=P(O)(O)CP(=O)(O)OC[C@H]1OC(c2cnc3c(N4CCc5ccccc54)cc(Cl)nn23)[C@H](O)[C@@H]1O (stereo partly drawn) [Example S25, (((((2R,3S,4R)-5-(6-chloro-8-(indolin-1-yl)imidazo[1,2-b]pyridazin-3-yl)-3,4-dihydroxytetrahydrofuran-2-yl)methoxy)(hydroxy)phosphoryl)methyl)phosphonic acid]	1 to 9.9 nM
O=P(O)(O)CP(=O)(O)OC[C@H]1OC(c2cnc3c(N4CCCCC4)cc(Cl)nn23)[C@H](O)[C@@H]1O (stereo partly drawn) [Example S26, (((((2R,3S,4R)-5-(6-chloro-8-(piperidin-1-yl)imidazo[1,2-b]pyridazin-3-yl)-3,4-dihydroxytetrahydrofuran-2-yl)methoxy)(hydroxy)phosphoryl)methyl)phosphonic acid]	1 to 9.9 nM
O=P(O)(O)CP(=O)(O)OC[C@H]1OC(c2cnc3c(N4CCCC[C@H]4c4ccccc4)cc(Cl)nn23)[C@H](O)[C@@H]1O (stereo partly drawn) [Example S27, (((((2R,3S,4R)-5-(6-chloro-8-((S)-2-phenylpiperidin-1-yl)imidazo[1,2-b]pyridazin-3-yl)-3,4-dihydroxytetrahydrofuran-2-yl)methoxy)(hydroxy)phosphoryl)methyl)phosphonic acid]	1 to 9.9 nM
O=P(O)(O)CP(=O)(O)OC[C@H]1OC(c2cnc3c(N4CCc5ccccc5C4)cc(Cl)nn23)[C@H](O)[C@@H]1O (stereo partly drawn) [Example S28, (((((2R,3S,4R)-5-(6-chloro-8-(3,4-dihydroisoquinolin-2 (1H)-yl)imidazo[1,2-b]pyridazin-3-yl)-3,4-dihydroxytetrahydrofuran-2-yl)methoxy)(hydroxy)phosphoryl)methyl)phosphonic acid]	1 to 9.9 nM
O=P(O)(O)CP(=O)(O)OC[C@H]1OC(c2cnc3c(N4CCC(F)(F)CC4)cc(Cl)nn23)[C@H](O)[C@@H]1O (stereo partly drawn) [Example S29, (((((2R,3S,4R)-5-(6-chloro-8-(4,4-difluoropiperidin-1-yl)imidazo[1,2-b]pyridazin-3-yl)-3,4-dihydroxytetrahydrofuran-2-yl)methoxy)(hydroxy)phosphoryl)methyl)phosphonic acid]	1 to 9.9 nM
O=P(O)(O)CP(=O)(O)OC[C@H]1OC(c2cnc3c(OC4CCCC4)cc(Cl)nn23)[C@H](O)[C@@H]1O (stereo partly drawn) [Example S30, (((((2R,3S,4R)-5-(6-chloro-8-(cyclopentyloxy)imidazo[1,2-b]pyridazin-3-yl)-3,4-dihydroxytetrahydrofuran-2-yl)methoxy)(hydroxy)phosphoryl)methyl)phosphonic acid]	1 to 9.9 nM
O=P(O)(O)CP(=O)(O)OC[C@H]1O[C@@H](c2cnc3c(NC4CCCC4)cc(Cl)nn23)[C@@H](F)[C@@H]1O [Example S31, (((((2R,3R,4S,5S)-5-(6-chloro-8-(cyclopentylamino)imidazo[1,2-b]pyridazin-3-yl)-4-fluoro-3-hydroxytetrahydrofuran-2-yl)methoxy)(hydroxy)phosphoryl)methyl)phosphonic acid]	10 to 99 nM
CN(c1cc(Cl)nn2c([C@@H]3O[C@H](COP(=O)(O)CP(=O)(O)O)[C@@H](O)[C@H]3O)cnc12)C1CCCC1 [Example S32]	1 to 9.9 nM
O=P(O)(O)CP(=O)(O)OC[C@H]1O[C@@H](c2cnc3c(NC45CCC(CC4)C5)cc(Cl)nn23)[C@H](O)[C@@H]1O [Example S33, [({[(2R,3S,4R,5S)-5-(8-{bicyclo[2.2.1]heptan-1-ylamino}-6-chloroimidazo[1,2-b]pyridazin-3-yl)-3,4-dihydroxyoxolan-2-yl]methoxy}(hydroxy)phosphoryl)methyl]phosphonic acid]	1 to 9.9 nM
O=P(O)(O)CP(=O)(O)OC[C@H]1O[C@@H](c2cnc3c(N4CCC[C@H]4c4ccccc4F)cc(Cl)nn23)[C@H](O)[C@@H]1O [Example S34, (((((2R,3S,4R,5S)-5-(6-chloro-8-((S)-2-(2-fluorophenyl)pyrrolidin-1-yl)imidazo[1,2-b]pyridazin-3-yl)-3,4-dihydroxytetrahydrofuran-2-yl)methoxy)(hydroxy)phosphoryl)methyl)phosphonic acid]	1 to 9.9 nM
O=P(O)(O)CP(=O)(O)OC[C@H]1O[C@@H](c2cnc3c(N4CCC(F)(F)C4)cc(Cl)nn23)[C@H](O)[C@@H]1O [Example S35, (((((2R,3S,4R,5S)-5-(6-chloro-8-(3,3-difluoropyrrolidin-1-yl)imidazo[1,2-b]pyridazin-3-yl)-3,4-dihydroxytetrahydrofuran-2-yl)methoxy)(hydroxy)phosphoryl)methyl)phosphonic acid]	1 to 9.9 nM
C[C@H](Nc1cc(Cl)nn2c([C@@H]3O[C@H](COP(=O)(O)CP(=O)(O)O)[C@@H](O)[C@H]3O)ncc12)c1ccccc1F [Example S37, (((((2R,3S,4R,5S)-5-(2-chloro-4-(((S)-1-(2-fluorophenyl)ethyl)amino)imidazo[1,5-b]pyridazin-7-yl)-3,4-dihydroxytetrahydrofuran-2-yl)methoxy)(hydroxy)phosphoryl)methyl)phosphonic acid]	1 to 9.9 nM
